Source: US8519134B2, “Aryl-pyridine derivatives as aldosterone synthase inhibitors” (Novartis AG, priority 2009, dated 2013)
Structures can show the parent of a compound that is named as a salt.

Experiments:
[1] = molecular target: T1, CYP11B1(cortisol) (Homo sapiens, UniProt P15538); experiment: Inhibition of cortisol production in NCI-H295R cells; assay type: cell-based; details: inhibitory activity on cortisol production, read-out: Cortisol (cell)
T1 construct: Thus, the NCI-H295R cells have CYP11 B1 (steroid 11 β-hydroxylase); host or cells: NCI-H295R (human adrenocortical carcinoma)
T1 sequence (P15538 25-503): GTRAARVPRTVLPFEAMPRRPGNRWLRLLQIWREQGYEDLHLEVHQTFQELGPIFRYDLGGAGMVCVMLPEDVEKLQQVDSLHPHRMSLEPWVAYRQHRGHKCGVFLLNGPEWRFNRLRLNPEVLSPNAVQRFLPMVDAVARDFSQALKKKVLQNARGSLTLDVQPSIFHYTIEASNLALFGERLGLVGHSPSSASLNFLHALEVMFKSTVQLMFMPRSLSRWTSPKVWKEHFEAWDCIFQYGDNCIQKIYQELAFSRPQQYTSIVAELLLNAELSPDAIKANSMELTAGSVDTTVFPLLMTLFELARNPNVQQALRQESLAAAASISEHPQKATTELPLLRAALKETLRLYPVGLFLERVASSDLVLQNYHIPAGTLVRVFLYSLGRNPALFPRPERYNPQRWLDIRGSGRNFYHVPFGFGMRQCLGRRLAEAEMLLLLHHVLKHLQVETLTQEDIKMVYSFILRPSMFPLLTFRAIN
Excerpt: The in vitro inhibitory activities for CYP11B1 can be determined by the following assay.
The cell line NCI-H295R was originally isolated from an adrenocortical carcinoma and has been characterized in the literature through the stimulable secretion of steroid hormones and the presence of the enymes essential for steroidogenesis. Thus, the NCI-H295R cells have CYP11 B1 (steroid 11 β-hydroxylase). The cells show the physiological property of zonally undifferentiated human foetal adrenocortical cells which, however, have the capacity to produce the steroid hormones which are formed in the three, phenotypically distinguishable zones in the adult adrenal cortex.
The NCI-H295R cells (American Type Culture Collection, ATCC, Rockville, Md., USA) are grown in Dulbeoco's Modified Eagle'Ham F-12 Medium (DME/F12), which has been supplemented with Ulroser SF Serum (Soprachem, Cergy-Saint-Christophe, France), insulin, transferrin, selenite (I-T-S, Becton Dickinson Biosiences, Franklin lakes, NJ, USA) and antibiotics in 75 cm^2 cell culture vessels at 37° C. and in a 95% air-5% carbon dioxide atmosphere. The cells are subsequently transferred for colony formation into a 24-well incubation vessel. They are cultivated there in DME/F12 medium, which is now supplemented with 0.1% bovine serum instead of Ultroser SF for 24 hours. The experiment is initiated by cultivating the cells in DME/F12 medium which is supplemented with 0.1% bovine serum albumin and test compound, in the presence or absence of cell stimulants, for 72 hours. The test substance is added in a concentration range from 0.2 nanomolar to […]. Cell stimulants which can be used are angiotensin 11 ([…] or 100 nanomolar), potassium ions (16 millimolar), forskolin (10 micromolar) or a combination of two stimulants.
The excretion of aldosterone, cortisol, corticosterone and estradiol/estrone into the culture medium can be detected and quantified by commercially available, specific monoclonal antibodies in radioimmunoassays in accordance with the manufacturers instructions.
Inhibition of the release of certain steroids can be used as a measure of the respective enzyme inhibition by the added test compounds. The dose-dependent inhibition of enzymic activity by a compound is calculated by means of an inhibition plot which is characterized by an IC50.
The IC50 values for active test compounds are ascertained by a simple linear regression analysis in order to construct inhibition plots without data weighting. The inhibition plot is calculated by fitting a 4-parameter logistic function to the raw data points using the least squares method. The equation of the 4-parameter logistic function is calculated as follows: Y=(d−a)/((1+(x/c)b))+a, where: a=minimum data level, b=gradient, I […], d=maximum data level, x=inhibitor concentration.
The inhibition activity of CYP11B1 production can also be expressed in percentage inhibition (% inhibition) at a given concentration (e.g. % inhibition at 1 μM), which is the cortisol level when cell is treated with the given concentration of a compound of the invention (e.g. concentration of 1 μM) versus the cortisol excretion when cell is free of the compound of the invention. % inhibition cortisol production=[(Y′−X′)/Y′]×100 wherein X′ is the level of cortisol when the cell is treated with a compound according to anyone of Formulae I to V, or a pharmaceutically acceptable salt thereof; and Y′ is the level of cortisol when the cell is free of compound according to anyone of Formulae I to V.

[2] = molecular target: T2, CYP11B2 (aldosterone) (Homo sapiens, UniProt P19099); experiment: Inhibition of aldosterone production in NCI-H295R cells (Ang II stimulated, SPA); assay type: cell-based; details: inhibitory activity on aldosterone production, read-out: Aldosterone (cell)
T2 construct: host or cells: NCI-H295R (human adrenocortical carcinoma)
T2 sequence (P19099 25-503): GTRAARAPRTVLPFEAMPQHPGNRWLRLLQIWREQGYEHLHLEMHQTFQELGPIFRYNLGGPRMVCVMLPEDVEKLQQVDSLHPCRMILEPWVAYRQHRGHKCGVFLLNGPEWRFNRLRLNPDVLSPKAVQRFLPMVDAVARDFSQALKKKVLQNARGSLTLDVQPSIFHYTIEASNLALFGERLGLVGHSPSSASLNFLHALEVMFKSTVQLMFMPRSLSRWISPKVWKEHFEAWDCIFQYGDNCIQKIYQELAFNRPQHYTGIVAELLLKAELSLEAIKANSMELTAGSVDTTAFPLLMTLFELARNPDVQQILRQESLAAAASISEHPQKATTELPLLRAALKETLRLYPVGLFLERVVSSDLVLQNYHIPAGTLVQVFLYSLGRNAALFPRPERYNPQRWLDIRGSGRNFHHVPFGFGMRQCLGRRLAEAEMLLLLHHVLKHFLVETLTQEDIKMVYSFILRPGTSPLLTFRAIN
Excerpt: In particular, the aldosterone synthase inhibitory activities in vitro can be determined by the following assay.
Human adrenocortical carcinoma NCI-H295R cell line was obtained from American Type Culture Collection (Manassas, Va.). Insulin/transferrin/selenium (ITS)-A supplement (100×), DMEM/F-12, antibiotic/antimycotic (100×), and fetal bovine serum (FBS) were purchased from Invitrogen (Carlsbad, Calif.). Anti-mouse PVT scintillation proximity assay (SPA) beads and NBS 96-well plates were obtained from GE Health Sciences (Piscataway, N.J.) and Corning (Acton, Mass.), respectively. Solid black 96-well flat bottom plates were purchased from Costar (Corning, N.Y.). Aldosterone and angiotensin (Ang II) were purchased from Sigma (St. Louis, Mo.). D-[1,2,6,7-^3H(N)]aldosterone was acquired from PerkinElmer (Boston, Mass.). Nu-serum was a product of BD Biosciences (Franklin Lakes, N.J.).
For in vitro measurement of aldosterone activity, human adrenocortical carcinoma NCI-H295R cells are seeded in NBS 96-well plates at a density of 25,000 cells/well in 100 μl of a growth medium containing DMEM/F12 supplemented with 10% FCS, 2.5% Nu-serum, 1 μg ITS/ml, and 1× antibiotic/antimycotic. The medium is changed after culturing for 3 days at 37° C. under an atmosphere of 5% CO2/95% air. On the following day, cells are rinsed with 100 μl of phosphate-buffered saline (PBS) and incubated with 100 μl of treatment medium containing 1 μM Ang II and a compound at different concentrations in quadruplicate wells at 37° C. for 24 hr. At the end of incubation, 50 μl of medium is withdrawn from each well for measurement of aldosterone production by an SPA using mouse anti-aldosterone monoclonal antibodies.
Measurement of aldosterone activity can also be performed using a 96-well plate format. Each test sample is incubated with 0.02 μCi of D-[1,2,6,7-^3H(N)]aldosterone and 0.3 μg of anti-aldosterone antibody in PBS containing 0.1% Triton X-100, 0.1% bovine serum albumin, and 12% glycerol in a total volume of 200 μl at room temperature for 1 hr. Anti-mouse PVT SPA beads (50 μl) are then added to each well and incubated overnight at room temperature prior to counting in a Microbeta plate counter. The amount of aldosterone in each sample is calculated by comparing with a standard curve generated using known quantities of the hormone.
The inhibition activity of aldosterone production can also be expressed in percentage inhibition (% inhibition) at a given concentration (e.g. % inhibition at 1 μM), which is the aldosterone level when the cell is treated with the given concentration of a compound of this invention (e.g. concentration of 1 μM) versus the aldosterone excretion when cell is free of the compound of the invention: % inhibition aldosterone production=[(Y−X)/Y]×100 wherein X is the level of aldosterone when the cell is treated with a compound according to anyone of Formulae I to V, or a pharmaceutically acceptable salt thereof; and Y is the level of aldosterone when the cell is free of compound according to anyone of Formulae I to V.

Row | SMILES | IC50 [1] [nM] | IC50 [2] [nM]
1 | CC(O)c1c(F)cncc1-c1ccc2cc(C#N)ccc2c1 (single isomer, unassigned) [5 (enantiomer-1), 6-(5-fluoro-4-(1-hydroxyethyl)pyridin-3-yl)-2-naphthonitrile] | 367 | 41.5
2 | N#Cc1ccc(-c2cnccc2C2CCO2)cc1Cl (single isomer, unassigned) [Example 28 (enantiomer-1), 2-chloro-4-(4-(oxetan-2-yl)pyridin-3-yl)benzonitrile] | 783 | 23.5
3 | CC1OC(=O)c2cncc(-c3ccc(C#N)c(Cl)c3)c21 (stereo not shown) [Example 24, 2-chloro-4-(1-methyl-3-oxo-1,3-dihydrofuro[3,4-c]pyridin-7-yl)benzonitrile] |  | 261
4 | CC(O)c1c(F)cncc1-c1cc2cc(Cl)c(F)cc2o1 (single isomer, unassigned) [Example 13d (enantiomer-2), 1-(3-(5-chloro-6-fluorobenzofuran-2-yl)-5-fluoropyridin-4-yl)ethanol] | 1070 | 2.5
5 | CC(C)(O)c1c(F)cncc1-c1ccc(C#N)c(Cl)c1 [Example 32, 2-Chloro-4-[5-fluoro-4-(1-hydroxy-1-methyl-ethyl)-pyridin-3-yl]-benzonitrile] | 15000 | 154
6 | CC(C)OCC(O)c1c(F)cncc1-c1ccc(C#N)c(Cl)c1 (stereo not shown) [Example 30, 2-Chloro-4-[5-fluoro-4-(1-hydroxy-2-isopropoxy-ethyl)-pyridin-3-yl]-benzonitrile hydrochloride] | 4240 | 144
7 | CC(O)c1c(F)cncc1-c1ccc(C#N)c(Cl)c1 (single isomer, unassigned) [Example 16 (enantiomer-2)] | 9420 | 106

Other lines, results leading:

Row | IC50 [1] [nM] | IC50 [2] [nM] | SMILES
8 | 3390 | 132 | COc1cc(-c2cnccc2C(C)O)ccc1C#N (single isomer, unassigned) [Example 14 (enantiomer-1)]
9 | 672 | 76.5 | CC(O)c1ccncc1-c1ccc(Cl)c(Cl)c1 (stereo not shown) [Example 46, 1-[3-(3,4-Dichloro-phenyl)-pyridin-4-yl]ethanol]
10 | 12600 | 120 | Cn1c(-c2cnccc2CO)nc2ccc(Cl)cc21 [Example 37, [3-(6-Chloro-1-methyl-1H-benzoimidazol-2-yl)-pyridin-4-yl]-methanol]
